Results from US8076487B2, “Pyridone derivative and herbicide” (Kumiai Chemical Industry Co., Ltd., priority 2006, dated 2011).

Key:
Format in all cases: in vivo
[1] = tested on: early watergrass (Echinochloa oryzicola Vasing); assay: Test Example 1: herbicidal effect by soil application to paddy field; conditions: paddy field soil application; active ingredient 1,000 g per 1 hectare; wettable powder added dropwise to water surface the day after sowing; examined on the 21st day after application
Procedure, shortened: (§1)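 Plants were sown in flooded (3 cm) paddy soil and evaluated for herbicidal effect 21 days after soil application in a greenhouse.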

[2] = tested on: Japanese bulrush (Scirpus juncoides Roxb.); assay: as above; conditions: paddy field soil application; active ingredient 1,000 g per 1 hectare; wettable powder added dropwise to water surface the day after sowing; examined on the 21st day after application
Procedure, shortened: as §1

[3] = tested on: heartshape false pickerelweed (Monochoria vaginalis (Burm.f.) C.Presl); assay: as above; conditions: paddy field soil application; active ingredient 1,000 g per 1 hectare; wettable powder added dropwise to water surface the day after sowing; examined on the 21st day after application
Procedure, shortened: as §1

[4] = tested on: velvetleaf (Abutilon theophrasti medicus); assay: Test Example 2: herbicidal effect by soil application to upland field; conditions: soil surface spray, upland field soil, 1,000 g active ingredient per hectare, 21st day after application
Procedure, shortened: (§2)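 Soil surface treatment after sowing: wettable powder in water, 1,000 g a.i./ha, spray volume 1,000 L/ha. Greenhouse. Scored on a standard herbicidal scale at day 21.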

[5] = tested on: green foxtail (Setaria viridis (L.) P. Beauv.); assay: as above; conditions: soil surface spray, upland field soil, 1,000 g active ingredient per hectare, 21st day after application
Procedure, shortened: as §2

[6] = tested on: barnyardgrass (Echinochloa crus-galli (L.) P. Beauv. var. crus-galli); assay: as above; conditions: soil surface spray, upland field soil, 1,000 g active ingredient per hectare, 21st day after application
Procedure, shortened: as §2

[7] = tested on: slender amaranth (Amaranthus viridis L.); assay: as above; conditions: soil surface spray, upland field soil, 1,000 g active ingredient per hectare, 21st day after application
Procedure, shortened: as §2

[8] = tested on: velvetleaf (Abutilon theophrasti medicus); assay: Test Example 3: herbicidal effect by application to upland field (foliage treatment); conditions: foliage treatment, 1,000 g active ingredient per 1 hectare, 14th day after application, greenhouse
Procedure, shortened: (§3)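 Upland foliage test in greenhouse pots of field soil: seedlings sprayed at two weeks post-sowing with 1,000 g/ha active ingredient (wettable powder, 1,000 L water/ha). Scored 14 d after application.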

[9] = tested on: green foxtail (Setaria viridis (L.) P. Beauv.); assay: as above; conditions: foliage treatment, 1,000 g active ingredient per 1 hectare, 14th day after application, greenhouse
Procedure, shortened: as §3

[10] = tested on: barnyardgrass (Echinochloa crus-galli (L.) P. Beauv. var. crus-galli); assay: as above; conditions: foliage treatment, 1,000 g active ingredient per 1 hectare, 14th day after application, greenhouse
Procedure, shortened: as §3

[11] = tested on: slender amaranth (Amaranthus viridis L.); assay: as above; conditions: foliage treatment, 1,000 g active ingredient per 1 hectare, 14th day after application, greenhouse
Procedure, shortened: as §3

Compound	herbicidal effect, Echinochloa oryzicola Vasing [1]	herbicidal effect, Scirpus juncoides Roxb. [2]	herbicidal effect, Monochoria vaginalis (Burm. f.) C. Presl [3]	herbicidal effect (index), Velvetleaf [4]	herbicidal effect (index), Green Foxtail [5]	herbicidal effect (index), Barnyardgrass [6]	herbicidal effect (index), Slender Amaranth [7]	herbicidal effect, Velvetleaf [8]	herbicidal effect, Green Foxtail [9]	herbicidal effect, Barnyardgrass [10]	herbicidal effect, Slender Amaranth [11]
Cn1c(C(F)(F)F)ccc(C(=O)C2=C(O)C3CCC(C3)C2=O)c1=O (stereo not shown) [III-1]	5 (90% or more of herbicidal effect and crop phytotoxicity)	5 (90% or more of herbicidal effect and crop phytotoxicity)	5 (90% or more of herbicidal effect and crop phytotoxicity)	5 (90% or more of herbicidal effect and crop phytotoxicity)	5 (90% or more of herbicidal effect and crop phytotoxicity)	5 (90% or more of herbicidal effect and crop phytotoxicity)	5 (90% or more of herbicidal effect and crop phytotoxicity)	5 (90% or more of herbicidal effect and crop phytotoxicity)	5 (90% or more of herbicidal effect and crop phytotoxicity)	4 (70 to less than 90% of herbicidal effect and crop phytotoxicity)	5 (90% or more of herbicidal effect and crop phytotoxicity)
CCCn1c(C(F)(F)F)ccc(C(=O)C2=C(O)C3CCC(C3)C2=O)c1=O (stereo not shown) [III-3]	5 (90% or more of herbicidal effect and crop phytotoxicity)	5 (90% or more of herbicidal effect and crop phytotoxicity)	5 (90% or more of herbicidal effect and crop phytotoxicity)	5 (90% or more of herbicidal effect and crop phytotoxicity)	5 (90% or more of herbicidal effect and crop phytotoxicity)	5 (90% or more of herbicidal effect and crop phytotoxicity)	5 (90% or more of herbicidal effect and crop phytotoxicity)	5 (90% or more of herbicidal effect and crop phytotoxicity)	5 (90% or more of herbicidal effect and crop phytotoxicity)	5 (90% or more of herbicidal effect and crop phytotoxicity)	5 (90% or more of herbicidal effect and crop phytotoxicity)
O=C(C1=C(O)C2CCC(C2)C1=O)c1ccc(C(F)(F)F)n(C2CC2)c1=O (stereo not shown) [III-5]	5 (90% or more of herbicidal effect and crop phytotoxicity)	5 (90% or more of herbicidal effect and crop phytotoxicity)	5 (90% or more of herbicidal effect and crop phytotoxicity)	5 (90% or more of herbicidal effect and crop phytotoxicity)	5 (90% or more of herbicidal effect and crop phytotoxicity)	5 (90% or more of herbicidal effect and crop phytotoxicity)	5 (90% or more of herbicidal effect and crop phytotoxicity)	5 (90% or more of herbicidal effect and crop phytotoxicity)	5 (90% or more of herbicidal effect and crop phytotoxicity)	5 (90% or more of herbicidal effect and crop phytotoxicity)	5 (90% or more of herbicidal effect and crop phytotoxicity)
CCCCn1c(C(F)(F)F)ccc(C(=O)C2=C(O)C3CCC(C3)C2=O)c1=O (stereo not shown) [III-6]	5 (90% or more of herbicidal effect and crop phytotoxicity)	5 (90% or more of herbicidal effect and crop phytotoxicity)	5 (90% or more of herbicidal effect and crop phytotoxicity)	5 (90% or more of herbicidal effect and crop phytotoxicity)	5 (90% or more of herbicidal effect and crop phytotoxicity)	5 (90% or more of herbicidal effect and crop phytotoxicity)	5 (90% or more of herbicidal effect and crop phytotoxicity)	5 (90% or more of herbicidal effect and crop phytotoxicity)	5 (90% or more of herbicidal effect and crop phytotoxicity)	5 (90% or more of herbicidal effect and crop phytotoxicity)	5 (90% or more of herbicidal effect and crop phytotoxicity)
CCCCCCn1c(C(F)(F)F)ccc(C(=O)C2=C(O)C3CCC(C3)C2=O)c1=O (stereo not shown) [III-10]	5 (90% or more of herbicidal effect and crop phytotoxicity)	5 (90% or more of herbicidal effect and crop phytotoxicity)	5 (90% or more of herbicidal effect and crop phytotoxicity)	5 (90% or more of herbicidal effect and crop phytotoxicity)	5 (90% or more of herbicidal effect and crop phytotoxicity)	5 (90% or more of herbicidal effect and crop phytotoxicity)	5 (90% or more of herbicidal effect and crop phytotoxicity)	5 (90% or more of herbicidal effect and crop phytotoxicity)	5 (90% or more of herbicidal effect and crop phytotoxicity)	5 (90% or more of herbicidal effect and crop phytotoxicity)	4 (70 to less than 90% of herbicidal effect and crop phytotoxicity)
O=C(C1=C(O)C2CCC(C2)C1=O)c1ccc(C(F)(F)F)n(C2CCCC2)c1=O (stereo not shown) [III-11]	5 (90% or more of herbicidal effect and crop phytotoxicity)	5 (90% or more of herbicidal effect and crop phytotoxicity)	5 (90% or more of herbicidal effect and crop phytotoxicity)	5 (90% or more of herbicidal effect and crop phytotoxicity)	4 (70 to less than 90% of herbicidal effect and crop phytotoxicity)	4 (70 to less than 90% of herbicidal effect and crop phytotoxicity)	5 (90% or more of herbicidal effect and crop phytotoxicity)	5 (90% or more of herbicidal effect and crop phytotoxicity)	5 (90% or more of herbicidal effect and crop phytotoxicity)	5 (90% or more of herbicidal effect and crop phytotoxicity)	5 (90% or more of herbicidal effect and crop phytotoxicity)
Cn1c(C(F)(F)F)ccc(C(=O)C2=C(Sc3ccccc3)C3CCC(C3)C2=O)c1=O (stereo not shown) [III-14]	5 (90% or more of herbicidal effect and crop phytotoxicity)	5 (90% or more of herbicidal effect and crop phytotoxicity)	5 (90% or more of herbicidal effect and crop phytotoxicity)	5 (90% or more of herbicidal effect and crop phytotoxicity)	4 (70 to less than 90% of herbicidal effect and crop phytotoxicity)	4 (70 to less than 90% of herbicidal effect and crop phytotoxicity)	5 (90% or more of herbicidal effect and crop phytotoxicity)	5 (90% or more of herbicidal effect and crop phytotoxicity)	5 (90% or more of herbicidal effect and crop phytotoxicity)	5 (90% or more of herbicidal effect and crop phytotoxicity)	5 (90% or more of herbicidal effect and crop phytotoxicity)
CCn1c(C(F)(F)F)ccc(C(=O)C2=C(Sc3ccccc3)C3CCC(C3)C2=O)c1=O (stereo not shown) [III-15]	5 (90% or more of herbicidal effect and crop phytotoxicity)	5 (90% or more of herbicidal effect and crop phytotoxicity)	5 (90% or more of herbicidal effect and crop phytotoxicity)	5 (90% or more of herbicidal effect and crop phytotoxicity)	5 (90% or more of herbicidal effect and crop phytotoxicity)	5 (90% or more of herbicidal effect and crop phytotoxicity)	5 (90% or more of herbicidal effect and crop phytotoxicity)	5 (90% or more of herbicidal effect and crop phytotoxicity)	5 (90% or more of herbicidal effect and crop phytotoxicity)	5 (90% or more of herbicidal effect and crop phytotoxicity)	5 (90% or more of herbicidal effect and crop phytotoxicity)
